Reference: ChEMBL document CHEMBL1201862, “PubChem BioAssay data set” (2004)
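Exposure lasted 48 hours, with cells grown in 96-well plates and compounds tested at five concentrations. Abbreviation: GI50, concentration required for 50% inhibition of growth.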 Calls of active or inactive are those of the source. Cut-off read from the data, not from the text of the source: active = GI50 up to about 1.1 µM and inactive = higher.

What was measured:
Assay in all cases: growth of human tumour cells (NCI), 48 h
TK-10 = tested on: TK-10
MOLT-4 = tested on: MOLT-4
NCI-H23 = tested on: NCI-H23
OVCAR-4 = tested on: OVCAR-4
HT-29 = tested on: HT-29
SK-MEL-28 = tested on: SK-MEL-28
UACC-257 = tested on: UACC-257
KM12 = tested on: KM12
OVCAR-5 = tested on: OVCAR-5
A498 = tested on: A498
HOP-62 = tested on: HOP-62
BT-549 = tested on: BT-549
K562 = tested on: K562
COLO 205 = tested on: COLO 205
DU-145 = tested on: DU-145
Hs-578T = tested on: Hs-578T
SF-539 = tested on: SF-539
A549 = tested on: A549
LOX IMVI = tested on: LOX IMVI
T47D = tested on: T47D
HCT-15 = tested on: HCT-15
NCI-H460 = tested on: NCI-H460
MCF7 = tested on: MCF7
NCI-H226 = tested on: NCI-H226
HL-60 = tested on: HL-60
SF-268 = tested on: SF-268
NCI-H522 = tested on: NCI-H522
U-251 = tested on: U-251
SNB-75 = tested on: SNB-75
Malme-3M = tested on: Malme-3M
UO-31 = tested on: UO-31
HOP-92 = tested on: HOP-92
UACC-62 = tested on: UACC-62
SR = tested on: SR
SF-295 = tested on: SF-295
HCT-116 = tested on: HCT-116
PC-3 = tested on: PC-3
CCRF-CEM = tested on: CCRF-CEM
HCC 2998 = tested on: HCC 2998
RPMI-8226 = tested on: RPMI-8226
IGROV-1 = tested on: IGROV-1
EKVX = tested on: EKVX
MDA-MB-231 = tested on: MDA-MB-231
MDA-N = tested on: MDA-N
MDA-MB-435 = tested on: MDA-MB-435
SK-OV-3 = tested on: SK-OV-3
SW-620 = tested on: SW-620
CAKI-1 = tested on: CAKI-1
OVCAR-8 = tested on: OVCAR-8
ACHN = tested on: ACHN
SK-MEL-2 = tested on: SK-MEL-2
OVCAR-3 = tested on: OVCAR-3
SK-MEL-5 = tested on: SK-MEL-5
SNB-19 = tested on: SNB-19
SN12C = tested on: SN12C
M14 = tested on: M14
786-0 = tested on: 786-0
NCI/ADR-RES = tested on: NCI/ADR-RES

Compound: O=C(Nc1ccc([N+](=O)[O-])cc1)Nn1cnnc1
- GI50 (TK-10): 42.5 µM (inactive)
- GI50 (MOLT-4): > 100 µM (inactive)
- GI50 (NCI-H23): 13 µM (inactive)
- GI50 (OVCAR-4): 14.3 µM (inactive)
- GI50 (HT-29): 26.2 µM (inactive)
- GI50 (SK-MEL-28): > 100 µM (inactive)
- GI50 (UACC-257): 94 µM (inactive)
- GI50 (KM12): 26.1 µM (inactive)
- GI50 (OVCAR-5): > 100 µM (inactive)
- GI50 (A498): 34.1 µM (inactive)
- GI50 (HOP-62): 66.2 µM (inactive)
- GI50 (BT-549): 20.8 µM (inactive)
- GI50 (K562): > 100 µM (inactive)
- GI50 (COLO 205): > 100 µM (inactive)
- GI50 (DU-145): 64 µM (inactive)
- GI50 (Hs-578T): 26.1 µM (inactive)
- GI50 (SF-539): 25.7 µM (inactive)
- GI50 (A549): 67.3 µM (inactive)
- GI50 (LOX IMVI): 96.8 µM (inactive)
- GI50 (T47D): 24 µM (inactive)
- GI50 (HCT-15): 45.6 µM
- GI50 (NCI-H460): 37.6 µM (inactive)
- GI50 (MCF7): 73.6 µM (inactive)
- GI50 (NCI-H226): < 0.01 µM (active)
- GI50 (HL-60): > 100 µM (inactive)
- GI50 (SF-268): 42 µM (inactive)
- GI50 (NCI-H522): 49.8 µM (inactive)
- GI50 (U-251): 27.5 µM (inactive)
- GI50 (SNB-75): > 100 µM (inactive)
- GI50 (Malme-3M): 15.9 µM (inactive)
- GI50 (UO-31): 53.1 µM (inactive)
- GI50 (HOP-92): > 100 µM (inactive)
- GI50 (UACC-62): 46.3 µM (inactive)
- GI50 (SR): 31.6 µM (inactive)
- GI50 (SF-295): 29 µM (inactive)
- GI50 (HCT-116): 74.5 µM (inactive)
- GI50 (PC-3): 42.1 µM (inactive)
- GI50 (CCRF-CEM): > 100 µM (inactive)
- GI50 (HCC 2998): 55.1 µM (inactive)
- GI50 (RPMI-8226): 49.7 µM (inactive)
- GI50 (IGROV-1): 80 µM (inactive)
- GI50 (EKVX): > 100 µM (inactive)
- GI50 (MDA-MB-231): > 10 µM (inactive)
- GI50 (MDA-N): 34 µM (inactive)
- GI50 (MDA-MB-435): 44.9 µM (inactive)
- GI50 (SK-OV-3): > 100 µM (inactive)
- GI50 (SW-620): 89.7 µM (inactive)
- GI50 (CAKI-1): > 100 µM (inactive)
- GI50 (OVCAR-8): 27.3 µM (inactive)
- GI50 (ACHN): > 100 µM (inactive)
- GI50 (SK-MEL-2): > 100 µM (inactive)
- GI50 (OVCAR-3): 12.2 µM (inactive)
- GI50 (SK-MEL-5): > 100 µM (inactive)
- GI50 (SNB-19): 57 µM (inactive)
- GI50 (SN12C): > 10 µM (inactive)
- GI50 (M14): > 100 µM (inactive)

Compound: CC[C@@H]1C[C@@H](O)[C@@H]2[C@H](O)[C@H](O)CN2C1
- GI50 (TK-10): > 100 µM (inactive)
- GI50 (MOLT-4): > 100 µM (inactive)
- GI50 (NCI-H23): > 100 µM (inactive)
- GI50 (OVCAR-4): > 100 µM (inactive)
- GI50 (HT-29): > 100 µM (inactive)
- GI50 (SK-MEL-28): > 100 µM (inactive)
- GI50 (UACC-257): > 100 µM (inactive)
- GI50 (KM12): > 100 µM (inactive)
- GI50 (OVCAR-5): > 100 µM (inactive)
- GI50 (A498): > 100 µM (inactive)
- GI50 (BT-549): > 100 µM (inactive)
- GI50 (K562): > 100 µM (inactive)
- GI50 (COLO 205): > 100 µM (inactive)
- GI50 (DU-145): > 100 µM (inactive)
- GI50 (Hs-578T): > 100 µM (inactive)
- GI50 (SF-539): > 100 µM (inactive)
- GI50 (A549): > 100 µM (inactive)
- GI50 (LOX IMVI): > 100 µM (inactive)
- GI50 (T47D): > 100 µM (inactive)
- GI50 (HCT-15): > 100 µM
- GI50 (NCI-H460): > 100 µM (inactive)
- GI50 (786-0): > 100 µM (inactive)
- GI50 (MCF7): > 100 µM (inactive)
- GI50 (NCI-H226): > 100 µM (inactive)
- GI50 (HL-60): > 100 µM (inactive)
- GI50 (SF-268): > 100 µM (inactive)
- GI50 (NCI-H522): > 100 µM (inactive)
- GI50 (U-251): > 100 µM (inactive)
- GI50 (SNB-75): 22.3 µM (inactive)
- GI50 (Malme-3M): > 100 µM (inactive)
- GI50 (UO-31): > 100 µM (inactive)
- GI50 (HOP-92): > 100 µM (inactive)
- GI50 (UACC-62): > 100 µM (inactive)
- GI50 (SF-295): > 100 µM (inactive)
- GI50 (HCT-116): > 100 µM (inactive)
- GI50 (PC-3): > 100 µM (inactive)
- GI50 (CCRF-CEM): > 100 µM (inactive)
- GI50 (HCC 2998): > 100 µM (inactive)
- GI50 (RPMI-8226): > 100 µM (inactive)
- GI50 (IGROV-1): > 100 µM (inactive)
- GI50 (EKVX): > 100 µM (inactive)
- GI50 (MDA-MB-231): > 100 µM (inactive)
- GI50 (MDA-N): > 100 µM (inactive)
- GI50 (MDA-MB-435): > 100 µM (inactive)
- GI50 (SK-OV-3): > 100 µM (inactive)
- GI50 (SW-620): > 100 µM (inactive)
- GI50 (CAKI-1): > 100 µM (inactive)
- GI50 (OVCAR-8): > 100 µM (inactive)
- GI50 (ACHN): > 100 µM (inactive)
- GI50 (SK-MEL-2): > 100 µM (inactive)
- GI50 (NCI/ADR-RES): > 100 µM (inactive)
- GI50 (OVCAR-3): > 100 µM (inactive)
- GI50 (SK-MEL-5): > 100 µM (inactive)
- GI50 (SNB-19): > 100 µM (inactive)
- GI50 (SN12C): > 100 µM (inactive)
- GI50 (M14): > 100 µM (inactive)
